Source: US11780845B2 (Relay Therapeutics, Inc., priority 2019, dated 2023)

Experiments:
FGFR2 = FGFR2 (Homo sapiens (Human), UniProt P21802); assay: FGFR2 Biochemical Caliper Assay
Experimental: Compounds of the present invention were also tested in a FGFR2 Biochemical Caliper Assay. Compounds were prepared in 10 mM DMSO solution and serially diluted into 11 concentrations by 3-fold dilution. […] 5 uL of ATP solution (100 uM) was added to start the reaction and the plate was incubated for 90 minutes, then 70 uL of stopping buffer (0.5M EDTA) was added to terminate the reaction. Each well was analyzed using EZ reader.

SNU16 cells = assay: SNU16 Cancer Cell Line Proliferation Assay; type: cell-based; conditions: Homo sapiens; SNU-16 cells
Procedure, shortened: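 SNU16 cells were seeded, held 24 h at 37 degrees, then dosed with an 11-point 3-fold dilution series prepared from a 10 mM DMSO stock. After 96 h incubation, viability was read by CellTiter Glo luminescence.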

Chain of FGFR2 (P21802 22-821): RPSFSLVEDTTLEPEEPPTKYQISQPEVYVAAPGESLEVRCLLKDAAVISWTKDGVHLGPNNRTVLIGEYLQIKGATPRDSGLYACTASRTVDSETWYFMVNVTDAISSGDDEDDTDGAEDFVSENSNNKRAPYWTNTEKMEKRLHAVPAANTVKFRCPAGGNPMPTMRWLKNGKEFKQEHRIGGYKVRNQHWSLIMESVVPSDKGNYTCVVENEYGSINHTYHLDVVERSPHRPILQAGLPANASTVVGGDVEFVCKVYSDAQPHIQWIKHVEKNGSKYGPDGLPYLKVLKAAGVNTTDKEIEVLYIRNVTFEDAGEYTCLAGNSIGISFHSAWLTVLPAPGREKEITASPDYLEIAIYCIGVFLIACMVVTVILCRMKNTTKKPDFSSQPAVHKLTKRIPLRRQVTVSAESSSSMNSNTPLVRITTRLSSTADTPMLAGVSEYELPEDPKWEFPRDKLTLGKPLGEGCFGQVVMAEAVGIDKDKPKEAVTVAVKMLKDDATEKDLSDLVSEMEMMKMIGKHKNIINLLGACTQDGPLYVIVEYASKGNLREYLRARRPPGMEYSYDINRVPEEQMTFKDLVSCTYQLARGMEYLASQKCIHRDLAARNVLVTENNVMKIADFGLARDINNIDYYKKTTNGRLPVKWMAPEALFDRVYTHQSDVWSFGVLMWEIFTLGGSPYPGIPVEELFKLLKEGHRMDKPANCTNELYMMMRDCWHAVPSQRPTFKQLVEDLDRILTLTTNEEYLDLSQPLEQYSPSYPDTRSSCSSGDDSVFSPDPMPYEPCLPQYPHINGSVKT

Row | Structure (SMILES) | IC50 (FGFR2) | IC50 (SNU16 cells)
1 | C=CC(=O)N1CCC(c2c(-c3ccc(NC4CCOCC4)cc3)c3c(N)ncnc3n2C)C1 (centres unmarked) [Example 773] | 1 to 100 µM | 1 to 100 µM
2 | CC#CC(=O)N1CCC(c2[nH]c3ncnc(N)c3c2-c2ccc(C(=O)N3CCCC3)cc2)C1 (centres unmarked) [Example 774] | 1 to 100 µM | 1 to 100 µM
3 | C=CC(=O)N1CCC(c2[nH]c3ncnc(N)c3c2-c2ccc(Oc3ccc(C)cn3)cc2)C1 (centres unmarked) [Example 775] | 0.1 to 0.25 µM | 1 to 100 µM
4 | C=CC(=O)N1CCC(c2c(-c3ccc(Cn4ccc(C)n4)cc3)c3c(N)ncnc3n2C)C1 (centres unmarked) [Example 776] | < 0.1 µM | ≤ 0.1 µM
5 | C=CC(=O)N(C)c1ccc(-c2[nH]c3ncnc(N)c3c2-c2ccc(Oc3cccc(C)n3)cc2)cc1 [Example 777] | 1 to 100 µM | 1 to 100 µM
6 | C=CC(=O)N1CCC(c2c(-c3cnn(-c4cccnc4)c3)c3c(N)ncnc3n2C)C1 (centres unmarked) [Example 778] | < 0.1 µM | ≤ 0.1 µM
7 | C=CC(=O)N1CCC(c2c(-c3cnn(-c4ccccn4)c3)c3c(N)ncnc3n2C)C1 (centres unmarked) [Example 779] | 1 to 100 µM | 1 to 100 µM
8 | C=CC(=O)N1CCC(c2c(-c3cnn(CC4CCN(C(C)=O)CC4)c3)c3c(N)ncnc3n2C)C1 (centres unmarked) [Example 780] | 0.25 to 1 µM | 0.25 to 1 µM
9 | C=CC(=O)N1CCC(c2c(C3=CCC(CO)CC3)c3c(N)ncnc3n2C)C1 (centres unmarked) [Example 781] | 1 to 100 µM | 1 to 100 µM
10 | C=CC(=O)N1CCC(c2c(-c3ccc(OC4CNC4)cc3)c3c(N)ncnc3n2C)C1 (centres unmarked) [Example 782] | 1 to 100 µM | 1 to 100 µM
11 | C=CC(=O)N1CCC(c2c(C3=CCN(C(C)=O)CC3(C)C)c3c(N)ncnc3n2C)C1 (centres unmarked) [Example 783] | 0.1 to 0.25 µM | 1 to 100 µM
12 | C=CC(=O)N1CCC(c2c(-c3ccc(C(=O)C4CCCC4)cc3)c3c(N)ncnc3n2C)C1 (centres unmarked) [Example 784] | 1 to 100 µM | 1 to 100 µM
13 | C=CC(=O)N1CCC(c2c(-c3ccc(S(=O)(=O)C4CC4)cc3)c3c(N)ncnc3n2C)C1 (centres unmarked) [Example 785] | < 0.1 µM | ≤ 0.1 µM
14 | C=CC(=O)Nc1ccc(-c2[nH]c3ncnc(N)c3c2-c2ccc(C(=O)N3CCCC3)cc2)cc1 [Example 786] | 0.25 to 1 µM | 1 to 100 µM
15 | CC#CC(=O)Nc1ccc(-c2[nH]c3ncnc(N)c3c2-c2ccc(Oc3cccc(C)n3)c(OC)c2)cc1 [Example 787] | < 0.1 µM | ≤ 0.1 µM
16 | C=C(C)C(=O)Nc1ccc(-c2[nH]c3ncnc(N)c3c2-c2ccc(Oc3cccc(C)n3)c(OCC)c2)cc1 [Example 788] | < 0.1 µM | ≤ 0.1 µM
17 | C=CC(=O)N1CCC(c2c(-c3ccc(CN4CCOCC4=O)cc3)c3c(N)ncnc3n2C)C1 (centres unmarked) [Example 789] | 1 to 100 µM | 1 to 100 µM
18 | C=CC(=O)N1CCC(c2c(-c3ccc(C(O)C4CC4)cc3)c3c(N)ncnc3n2C)C1 (centres unmarked) [Example 790] | 0.25 to 1 µM | 1 to 100 µM
19 | C=CC(=O)N1CCC(c2c(-c3ccc(N(C)C4CCOCC4)cc3)c3c(N)ncnc3n2C)C1 (centres unmarked) [Example 791] | 0.25 to 1 µM | 0.25 to 1 µM
20 | C=CC(=O)N1CCC(c2c(-c3ccn(Cc4ccccc4)c(=O)c3)c3c(N)ncnc3n2C)C1 (centres unmarked) [Example 792] | 0.1 to 0.25 µM | 0.1 to 0.25 µM
21 | C=CC(=O)N1CCC(c2c(-c3cnn(C4CNC4)c3)c3c(N)ncnc3n2C)C1 (centres unmarked) [Example 793] | 0.25 to 1 µM | 1 to 100 µM
22 | C=CC(=O)N1CCC(c2c(-c3ccc(Cn4ccccc4=O)cc3)c3c(N)ncnc3n2C)C1 (centres unmarked) [Example 794] | 1 to 100 µM | 1 to 100 µM
23 | C=C(C)C(=O)Nc1ccc(-c2cn3ncnc(N)c3c2-c2ccc(Oc3cccc(C)n3)cc2)cc1 [Example 795] | 1 to 100 µM | 1 to 100 µM
24 | C=C(C)C(=O)Nc1ccc(-c2[nH]c3ncnc(N)c3c2-c2ccc(C(=O)N3CCCC3)cc2)cc1 [Example 796] | < 0.1 µM | ≤ 0.1 µM
25 | C=CC(=O)N1CCC(c2c(-c3ccc(CN4CCCS4(=O)=O)cc3)c3c(N)ncnc3n2C)C1 (centres unmarked) [Example 797] | 0.25 to 1 µM | 0.25 to 1 µM
